Measurements: patent US12404304B1, “Telomerase reverse transcriptase (TERT) expression enhancing compounds and methods for using the same” (Sierra Sciences, LLC, priority 2007, dated 2025)

Assays:
viable cells in culture = test: Cell viability assay (CellTiter-Glo Luminescent Cell Viability Assay, ATP quantitation, percent of vehicle control)
[1] = test system: human TERT expression (hTERT mRNA); test: Quantitative real-time RT-PCR of hTERT mRNA expression (Ct, transcripts) in compound-treated cells; format: cell-based
Summary of the method: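 Read-out is cycle threshold, the cycle at which probe fluorescence released by Taq 5′-nuclease activity crosses a set level; Ct falls as hTERT mRNA rises. cDNA of treated and untreated cells was compared, with starting transcripts quantified against a known-cDNA standard curve.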

Compound	Average Cell Viability after 24 Hours (% DMSO) (viable cells in culture)	Average Number of hTERT Transcripts [1]
O=C(N/N=C/c1c(O)ccc2ccccc12)c1ccc(CO)nc1 [compound 1527]	89.01	15.53
CCN(CC)c1ccc(/C=N/NC(=O)C2CC2c2ccccc2)c(O)c1 (centres unmarked) [compound 1528]	69.89	24.18
COc1cccc(/C=N/NC(=O)C2CC2c2ccccc2)c1O (centres unmarked) [compound 1529]	102.67	29.94
C/C(=N\NC(=O)c1ccccc1O)c1ccccc1O [compound 1530]	96.99	30.46
C/C(=N\NC(=O)c1c(O)ccc2ccccc12)c1ccccc1C(=O)O [compound 1531]	110.91	32.70
Cc1c(OS(=O)(=O)c2ccccc2)ccc2c3c(c(=O)oc12)CCCC3 [compound 1533]	99.57	35.76
CS(=O)(=O)N1CCN(c2ccc(NC(=O)c3cccc(OCc4ccccc4)c3)cc2)CC1 [compound 1534]	90.05	3.18
Cc1ccc(S(=O)(=O)Nc2ccc([N+](=O)[O-])cc2)cc1 [compound 1535]	88.02	3.69
COC(=O)COc1ccc(NC(=O)c2ccccc2I)cc1 [compound 1536]	65.12	7.34
COC(=O)COc1ccc(NC(=O)c2cccc(C)c2)cc1 [compound 1537]	67.92	9.58
CC(C)c1cccc(C(C)C)c1NC(=O)c1ccc(OCC(=O)OC2CCCCC2)cc1 [compound 1538]	74.17	10.53
Cc1ccc(C)c(NC(=O)c2ccccc2NS(=O)(=O)c2cc([N+](=O)[O-])ccc2C)c1 [compound 1539]	65.11	37.11
S=C(Nc1ccc(Oc2ccccc2)cc1)Nc1ccc(Cl)cc1Cl [compound 1540]	68.10	9.11
COc1ccc(NC(=S)NCc2ccco2)c(OC)c1 [compound 1541]	104.75	3.41
CCN(Cc1ccncc1)C(=O)c1cccs1 [compound 1542]	111.82	3.43
CCOC(=O)c1c(NC(=O)CCN2C(=O)c3ccccc3C2=O)sc2c1CCC(C)C2 (centres unmarked) [compound 1543]	82.75	3.71
OCCN1CCN(c2ncnc3scc(-c4ccccc4)c23)CC1 [compound 1544]	104.59	3.85
CC1CCc2c(sc3ncnc(N4CCCC(C)C4)c23)C1 (centres unmarked) [compound 1545]	43.72	4.40
Cc1ccccc1OCC(=O)OCc1ccc([N+](=O)[O-])cc1 [compound 1548]	99.62	5.77
COC(=O)c1ccc(COC(=O)CCS(=O)(=O)c2ccc(C)cc2)cc1 [compound 1549]	99.71	8.60
C=CCN(CC=C)CCCOc1ccccc1 [compound 1550]	96.87	12.90
COC(=O)COc1ccc(S(=O)(=O)NCc2ccc(C)cc2)cc1 [compound 1551]	40.32	16.60
c1ccc(-c2nc3ccccn3c2Nc2ccc3c(c2)OCCO3)nc1 [compound 1552]	64.55	21.09
O=C(COc1ccccc1)Nc1ccc(C(=O)NCC2COc3ccccc3O2)cc1 (centres unmarked) [compound 1553]	77.33	23.58
Cc1ccc(NC(=O)CCC(=O)OCC(=O)c2ccc(Br)cc2)c(C)c1 [compound 1554]	71.31	46.62
CC(C)(C)c1cc(-c2nc3ccccc3[nH]2)c(O)c(-c2nc3ccccc3[nH]2)c1 [compound 1555]	90.08	52.10
CSc1nc(C2CC2)cc(-c2ccccc2)c1C#N [compound 1556]	90.02	85.40
NCCC(=O)N[C@@H](Cc1cnc[nH]1)C(=O)O [compound 1557]	97.77	54.80
